Data from patent publication US20260263429A1, “INHIBITORS OF CA 2+/CALMODULIN-DEPENDENT PROTEIN KINASE II (CAMKII) THAT DO NOT INHIBIT LONG-TERM POTENTIATION (LTP) INDUCTION AND THERAPEUTIC USES THEREOF” (The Regents of the University of Colorado, A Body Corporate, priority 2023, published 2026).

Columns and labels:
[1] = target: Flt3(h) (Homo sapiens, UniProt P36888); assay: Kinase panel, residual kinase activity at 1 μM inhibitor; format: biochemical
Description: (§1) In this table, residual kinase activity in the presence of 1 μM of each inhibitor is illustrated as a percentage of maximal activity.

[2] = target: JAK3(h) (Homo sapiens, UniProt P52333); assay: as above; format: biochemical
Description: as §1

[3] = target: PKG1α(h) (Homo sapiens, UniProt Q13976); assay: as above; format: biochemical
Description: as §1

[4] = target: JAK2(h) (Homo sapiens, UniProt O60674); assay: as above; format: biochemical
Description: as §1

[5] = target: PKBγ(h) (Homo sapiens, UniProt Q9Y243); assay: as above; format: biochemical
PKBγ(h), sequence (Q9Y243 whole entry): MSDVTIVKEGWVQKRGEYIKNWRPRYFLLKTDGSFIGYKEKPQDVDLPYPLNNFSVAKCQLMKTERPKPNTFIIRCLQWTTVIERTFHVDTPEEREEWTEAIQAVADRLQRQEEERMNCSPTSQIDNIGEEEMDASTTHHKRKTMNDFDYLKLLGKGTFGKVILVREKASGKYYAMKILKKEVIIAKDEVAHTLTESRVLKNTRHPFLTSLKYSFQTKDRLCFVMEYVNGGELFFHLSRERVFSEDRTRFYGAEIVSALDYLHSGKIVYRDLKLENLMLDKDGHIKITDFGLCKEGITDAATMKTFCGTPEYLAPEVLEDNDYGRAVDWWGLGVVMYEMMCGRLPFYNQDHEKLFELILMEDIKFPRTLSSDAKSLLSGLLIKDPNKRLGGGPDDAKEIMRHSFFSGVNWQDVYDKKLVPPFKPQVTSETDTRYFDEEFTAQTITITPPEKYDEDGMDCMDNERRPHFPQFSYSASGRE
Description: as §1

[6] = target: ROCK-II(h) (Homo sapiens, UniProt O75116); assay: as above; format: biochemical
ROCK-II(h), sequence (O75116 whole entry): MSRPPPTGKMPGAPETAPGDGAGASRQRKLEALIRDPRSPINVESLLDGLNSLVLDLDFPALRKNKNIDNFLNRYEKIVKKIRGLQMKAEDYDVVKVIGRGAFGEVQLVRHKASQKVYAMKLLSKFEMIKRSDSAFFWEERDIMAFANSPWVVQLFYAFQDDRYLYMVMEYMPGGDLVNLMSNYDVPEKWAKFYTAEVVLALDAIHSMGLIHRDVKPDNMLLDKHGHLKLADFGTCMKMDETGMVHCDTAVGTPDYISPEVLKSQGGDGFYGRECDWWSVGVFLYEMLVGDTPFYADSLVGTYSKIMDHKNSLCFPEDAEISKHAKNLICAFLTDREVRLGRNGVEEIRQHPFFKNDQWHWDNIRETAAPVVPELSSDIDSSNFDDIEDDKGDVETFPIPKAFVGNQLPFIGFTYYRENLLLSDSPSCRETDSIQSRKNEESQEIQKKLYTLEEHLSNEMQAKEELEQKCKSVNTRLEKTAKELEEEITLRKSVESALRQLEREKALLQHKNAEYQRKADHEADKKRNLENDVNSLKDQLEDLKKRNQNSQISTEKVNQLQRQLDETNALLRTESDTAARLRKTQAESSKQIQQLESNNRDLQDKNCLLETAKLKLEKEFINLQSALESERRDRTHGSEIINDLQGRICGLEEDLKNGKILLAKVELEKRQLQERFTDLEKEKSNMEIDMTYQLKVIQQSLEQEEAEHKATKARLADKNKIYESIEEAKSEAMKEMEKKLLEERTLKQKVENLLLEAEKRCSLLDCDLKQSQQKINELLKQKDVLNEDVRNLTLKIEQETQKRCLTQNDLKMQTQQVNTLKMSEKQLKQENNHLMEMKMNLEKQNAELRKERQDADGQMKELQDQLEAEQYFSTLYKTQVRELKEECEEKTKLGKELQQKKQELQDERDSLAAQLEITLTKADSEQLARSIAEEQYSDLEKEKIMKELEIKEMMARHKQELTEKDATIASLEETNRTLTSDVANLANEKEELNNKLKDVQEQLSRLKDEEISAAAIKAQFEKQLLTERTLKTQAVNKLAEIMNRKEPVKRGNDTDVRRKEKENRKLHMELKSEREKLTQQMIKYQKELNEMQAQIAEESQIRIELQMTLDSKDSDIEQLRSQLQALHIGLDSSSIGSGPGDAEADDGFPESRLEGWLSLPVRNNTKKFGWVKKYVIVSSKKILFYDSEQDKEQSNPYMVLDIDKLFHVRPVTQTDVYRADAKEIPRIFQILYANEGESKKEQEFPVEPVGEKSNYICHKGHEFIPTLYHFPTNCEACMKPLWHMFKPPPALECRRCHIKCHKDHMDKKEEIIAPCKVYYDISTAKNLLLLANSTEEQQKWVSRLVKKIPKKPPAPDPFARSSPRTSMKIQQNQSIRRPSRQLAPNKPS
Description: as §1

[7] = target: PI3 Kinase (p110a/p85a)(h) (Homo sapiens, UniProt P42336); assay: as above; format: biochemical
Description: as §1

[8] = target: PKG1β(h) (Homo sapiens, UniProt Q13976); assay: as above; format: biochemical
Description: as §1

[9] = target: Aurora-C(h) (Homo sapiens, UniProt Q9UQB9); assay: as above; format: biochemical
Aurora-C(h), sequence (Q9UQB9 whole entry): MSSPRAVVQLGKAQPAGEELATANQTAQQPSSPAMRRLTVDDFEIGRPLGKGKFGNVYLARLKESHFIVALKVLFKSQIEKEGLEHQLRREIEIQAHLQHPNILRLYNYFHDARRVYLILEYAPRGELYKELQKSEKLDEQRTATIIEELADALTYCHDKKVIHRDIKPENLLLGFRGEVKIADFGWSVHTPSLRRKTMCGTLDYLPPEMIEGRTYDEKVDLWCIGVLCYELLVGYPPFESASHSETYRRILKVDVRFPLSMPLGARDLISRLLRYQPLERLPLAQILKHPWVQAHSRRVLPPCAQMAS
Description: as §1

[10] = target: SAPK2a(h) (Homo sapiens, UniProt Q16539); assay: as above; format: biochemical
SAPK2a(h), sequence (Q16539 whole entry): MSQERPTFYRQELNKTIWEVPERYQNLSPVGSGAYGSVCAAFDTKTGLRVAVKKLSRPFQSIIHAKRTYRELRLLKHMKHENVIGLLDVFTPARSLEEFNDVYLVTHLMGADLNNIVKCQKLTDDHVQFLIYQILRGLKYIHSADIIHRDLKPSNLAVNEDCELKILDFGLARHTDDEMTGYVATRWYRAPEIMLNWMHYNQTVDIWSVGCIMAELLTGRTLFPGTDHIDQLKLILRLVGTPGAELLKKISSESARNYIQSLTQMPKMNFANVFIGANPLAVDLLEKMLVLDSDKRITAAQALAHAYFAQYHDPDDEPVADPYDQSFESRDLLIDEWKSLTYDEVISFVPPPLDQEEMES
Description: as §1

[11] = target: CDK5/p35(h) (Homo sapiens, UniProt Q00535); assay: as above; format: biochemical
Description: as §1

[12] = target: FAK(h) (Homo sapiens, UniProt Q05397); assay: as above; format: biochemical
FAK(h), sequence (Q05397 whole entry): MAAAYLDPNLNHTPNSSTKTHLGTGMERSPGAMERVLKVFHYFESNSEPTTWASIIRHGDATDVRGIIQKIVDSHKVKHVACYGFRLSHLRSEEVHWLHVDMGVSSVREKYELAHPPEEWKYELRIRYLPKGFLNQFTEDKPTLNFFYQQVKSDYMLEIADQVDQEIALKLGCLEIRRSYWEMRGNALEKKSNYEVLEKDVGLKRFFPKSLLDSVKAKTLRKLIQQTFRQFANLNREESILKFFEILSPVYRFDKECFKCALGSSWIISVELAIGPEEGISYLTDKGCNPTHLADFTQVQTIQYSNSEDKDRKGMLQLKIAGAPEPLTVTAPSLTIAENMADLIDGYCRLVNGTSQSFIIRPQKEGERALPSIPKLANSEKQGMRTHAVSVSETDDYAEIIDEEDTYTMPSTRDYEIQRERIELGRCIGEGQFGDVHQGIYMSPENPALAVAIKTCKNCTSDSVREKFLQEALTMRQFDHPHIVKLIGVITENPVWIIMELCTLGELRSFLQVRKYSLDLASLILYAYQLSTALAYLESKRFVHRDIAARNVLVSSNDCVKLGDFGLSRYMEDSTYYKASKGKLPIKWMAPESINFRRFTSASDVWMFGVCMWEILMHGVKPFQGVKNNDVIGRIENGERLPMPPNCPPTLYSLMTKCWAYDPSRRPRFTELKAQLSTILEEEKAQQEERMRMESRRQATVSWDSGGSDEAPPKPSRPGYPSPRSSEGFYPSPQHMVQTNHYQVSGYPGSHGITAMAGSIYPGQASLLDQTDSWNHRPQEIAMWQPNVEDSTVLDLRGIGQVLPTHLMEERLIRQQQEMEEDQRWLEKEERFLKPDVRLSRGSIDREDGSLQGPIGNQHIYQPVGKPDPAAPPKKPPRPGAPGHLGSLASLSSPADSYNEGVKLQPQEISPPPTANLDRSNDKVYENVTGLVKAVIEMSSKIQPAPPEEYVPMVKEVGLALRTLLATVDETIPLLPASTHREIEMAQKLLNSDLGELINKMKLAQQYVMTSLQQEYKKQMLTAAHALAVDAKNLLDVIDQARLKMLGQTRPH
Description: as §1

[13] = target: Ret(h) (Homo sapiens, UniProt P07949); assay: as above; format: biochemical
Description: as §1

[14] = target: MAPK2(h) (Homo sapiens, UniProt P28482); assay: as above; format: biochemical
MAPK2(h), sequence (P28482 whole entry): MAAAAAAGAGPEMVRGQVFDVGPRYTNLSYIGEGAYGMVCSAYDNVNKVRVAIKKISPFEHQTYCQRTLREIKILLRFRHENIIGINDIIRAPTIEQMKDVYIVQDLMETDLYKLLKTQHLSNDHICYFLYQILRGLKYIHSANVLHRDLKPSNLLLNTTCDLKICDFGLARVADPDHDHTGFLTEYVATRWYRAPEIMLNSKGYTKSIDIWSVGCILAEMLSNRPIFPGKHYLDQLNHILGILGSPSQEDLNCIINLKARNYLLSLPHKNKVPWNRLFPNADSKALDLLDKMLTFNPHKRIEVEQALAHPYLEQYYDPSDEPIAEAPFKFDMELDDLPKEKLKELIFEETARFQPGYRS
Description: as §1

[15] = target: CaMKIIβ(h) (Homo sapiens, UniProt Q13554); assay: as above; format: biochemical
Description: as §1

[16] = target: IGF-1R(h) (Homo sapiens, UniProt P08069); assay: as above; format: biochemical
Description: as §1

[17] = target: PAK2(h) (Homo sapiens, UniProt Q13177); assay: as above; format: biochemical
PAK2(h), sequence (Q13177 whole entry): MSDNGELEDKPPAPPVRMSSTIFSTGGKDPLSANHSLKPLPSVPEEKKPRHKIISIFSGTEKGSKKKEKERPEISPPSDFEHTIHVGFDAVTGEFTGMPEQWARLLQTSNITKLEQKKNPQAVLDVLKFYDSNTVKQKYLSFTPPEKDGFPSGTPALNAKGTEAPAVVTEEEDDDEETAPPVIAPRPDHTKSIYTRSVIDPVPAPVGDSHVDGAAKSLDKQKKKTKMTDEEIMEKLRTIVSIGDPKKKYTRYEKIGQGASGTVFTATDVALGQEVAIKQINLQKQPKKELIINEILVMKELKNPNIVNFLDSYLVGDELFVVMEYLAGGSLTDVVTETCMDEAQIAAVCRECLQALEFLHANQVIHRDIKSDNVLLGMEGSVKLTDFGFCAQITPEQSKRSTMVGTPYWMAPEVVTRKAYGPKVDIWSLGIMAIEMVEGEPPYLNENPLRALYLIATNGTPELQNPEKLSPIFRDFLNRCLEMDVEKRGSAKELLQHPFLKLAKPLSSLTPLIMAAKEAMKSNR
Description: as §1

[18] = system: CaMKII movement to excitatory synapses; assay: cLTP-induced CaMKII movement to excitatory synapses in the presence of soluble oligomeric Aβ; format: cell-based; details: 0.5 μM Aβ, inhibitor 10 μM, 45 minutes prior to cLTP
[19] = system: pT286 CaMKII; assay: CaMKII T286 phosphorylation in hippocampal cultures after chemical LTP stimulation; format: cell-based
Description: In this Example, other possibilities of AS283 action were tested. If AS283 blocks pT286 but not LTP because it also circumvents the need of pT286 for LTP, then AS283 should not only fail to block LTP in WT mice (as illustrated in FIGS. 3A-3B) but should also restore the capacity for LTP induction in T286A mutant mice. […] Specifically, in an exemplary method, the addition of AS283 (10 μM) enabled LTP in slices from the T286A mutant mice (FIGS. 3C-3D).
Immunoblot analysis. Protein concentration was determined using the Pierce BCA protein assay (Thermo-Fisher). Before undergoing SDS-PAGE, samples were boiled in Laemmli sample buffer for 5 min at 95° C. Proteins were separated in a resolving phase polymerized from 10% acrylamide, then transferred to a polyvinylidene difluoride membrane at 24 V for 1-2 h at 4° C. […] Blots were developed using chemiluminescence (Super Signal West Femto, Thermo-Fisher) imaged using the Chemi-Imager 4400 system (Alpha-Innotech), or imaged directly by fluorescence (Cytiva CyDye 700 goat anti-mouse and CyDye 800 goat anti-rabbit secondary antibodies.) using an OdysseyFc imaging instrument. All immunoblots were analyzed by densitometry (ImageJ). […]

[20] = target: T1, CaMKII F89G binding to GluN2B in HEK cells (Homo sapiens, UniProt Q9UQM7, F89G); assay: Ionomycin-induced co-localization of GFP-CaMKII F89G and mCh-GluN2B in HEK cells; format: cell-based; details: 10 μM NM-PP1
T1 construct: expressed in transfected cells; host or cells: HEK cells
Description: This conclusion also predicts that the LTP stimulus-induced movement of CaMKII to excitatory synapses should be (i) impaired in the CaMKII F89G mutant; but (ii) normalized by pharmacogenetic rescue with NM-PP1. Indeed, both predictions were observed experimentally (FIGS. 4D-4E).
Live imaging of HEK cells. HEK cells were grown and transfected with expression vectors for GFP-CaMKII mutants and pDisplay-mCh-GluN2B-c tail (2BC) as previously described; the GluN2B construct used included a S1303A mutation to avoid potential complications by differential phosphorylation of this regulatory site in the different conditions with or without kinase inhibitors. GFP-CaMKII colocalization with GluN2B in response to a Ca^2+ stimulus induced by 10 μM ionomycin was monitored for 5-10 min at 32° C. in imaging buffer (0.87× Hanks Balanced Salt Solution, 25 mM Hepes pH 7.4, 2 mM glucose, 2 mM CaCl2), 1 mM MgCl2) by fluorescence microscopy. Images were acquired on a Zeiss Axiovert 200M equipped with a climate control chamber, using SlideBook software (Intelligent Imaging Innovations). Colocalization analysis was performed by calculating the Pearson's correlation (correlation index) of pDisplay-mCh-2BC and GFP-CaMKII within the cytoplasm of HEK cells after background subtraction.

| Structure (SMILES) | residual kinase activity, Flt3(h) [1] | residual kinase activity, JAK3(h) [2] | residual kinase activity, PKG1α(h) [3] | residual kinase activity, JAK2(h) [4] | residual kinase activity, PKBγ(h) [5] | residual kinase activity, ROCK-II(h) [6] | residual kinase activity, PI3 Kinase (p110a/p85a)(h) [7] | residual kinase activity, PKG1β(h) [8] | residual kinase activity, Aurora-C(h) [9] | residual kinase activity, SAPK2a(h) [10] | residual kinase activity, CDK5/p35(h) [11] | residual kinase activity, FAK(h) [12] | residual kinase activity, Ret(h) [13] | residual kinase activity, MAPK2(h) [14] | residual kinase activity, CaMKIIβ(h) [15] | residual kinase activity, IGF-1R(h) [16] | residual kinase activity, PAK2(h) [17] | rescue of Aβ-blocked cLTP-induced movement of CaMKII to the synapses [18] | increase in pT286 levels after chemical LTP stimulation [19] | binding of CaMKII F89G to GluN2B in HEK cells after ionomycin [20] |
| --- | --- | --- | --- | --- | --- | --- | --- | --- | --- | --- | --- | --- | --- | --- | --- | --- | --- | --- | --- | --- |
| NCCNc1cccc(-c2ccnc3[nH]c4ccccc4c23)c1 [AS283] | 3 percentage of maximal activity | 92 percentage of maximal activity | 48 percentage of maximal activity | 121 percentage of maximal activity | 42 percentage of maximal activity | 77 percentage of maximal activity | 100 percentage of maximal activity | 38 percentage of maximal activity | 63 percentage of maximal activity | 95 percentage of maximal activity | 33 percentage of maximal activity | 68 percentage of maximal activity | 44 percentage of maximal activity | 97 percentage of maximal activity | 5 percentage of maximal activity | 110 percentage of maximal activity | 76 percentage of maximal activity | rescued | specifically blocked increase in pT286 levels |  |
| CC(C)(C)n1nc(Cc2cccc3ccccc23)c2c(N)ncnc21 [NM-PP1] |  |  |  |  |  |  |  |  |  |  |  |  |  |  |  |  |  |  |  | fully enabled binding |
